Assay results reported in US7122173B2, “Agent for the treatment of bladder irritative symptoms accompanied by benign prostatic hyperplasia” (Kyowa Hakko Kogyo Co., Ltd., priority 2001, dated 2006).

Assays:
[1] = tested on: Na^+ currents in DRG cells; assay: Voltage clamp, inward Na+ currents in DRG cells; format: cell-based, rat
Procedure: (§1) Experiments were performed on adult female Sprague Dawley rats. First and second series of the experiments were performed, respectively, in unidentified DRG neurons and a specific population of DRG neurons innervating the urinary bladder. The population of DRG neurons that innervate the urinary bladder were labeled by retrograde axonal transport of the fluorescent dye, Fast Blue (4% w/v) (Polyloy, Gross Umstadt, Germany), injected into the wall of the bladder in halothane-anesthetized animals 7 days before the dissociation. The dye was injected with a 28 gauge needle at three to six sites on the dorsal surface of the organ (5–6 μL per site, total volume of 20–30 μL). Each injection site was washed with saline to minimize contamination of adjacent organs with the dye.
(§2) Freshly dissociated neurons from DRG were prepared from halothane-anesthetized animals. L6 and S1 DRG were dissected from animals and then dissociated in a shaking bath for 25 minutes at 35° C. with 5 mL DMEM (Sigma) containing 0.3 mg/mL trypsin (Type 3, Sigma), 1 mg/mL collagenase (Type 1, Sigma), and 0.1 mg/mL deoxyribonuclease (Type 4, Sigma). Trypsin inhibitor (Type 2a, Sigma) was then added thereto to neutralize the activity of trypsin. Individual DRG cell bodies were isolated by trituration and then plated on a poly-L-lysine-coated 35 mm Petri dishes.
(§3) Dye-labeled primary afferent neurons that innervate the urinary bladder were identified using an inverted phase-contrast microscope (Nikon, Tokyo, Japan) with fluorescent attachments (UV-1A filter; excitation wavelength, 365 nm). Gigaohm-seal whole-cell recordings were performed at room temperature (20–22° C.) on each labeled neuron in a culture dish that usually contained three to seven labeled cells among a few hundred unlabeled neurons. The internal solution contained (in mmol/L): KCl 140, CaCl2 1, MgCl2 2, EGTA 11, HEPES 10, Mg-ATP 2, and Tris-GTP 0.4 adjusted to pH 7.4 with KOH. Patch electrodes had resistances of 1–4 M Ω when filled with the internal solution. Neurons were superfused at a flow rate of 1.5 mL/minutes with an external solution containing (in mmol/L): NaCl 150, KCl 5, CaCl2 2.5, MgCl2 1, HEPES 10, and D-glucose 10, adjusted to pH 7.4 with NaOH. All recordings were made with an Axopatch-1D patch-clamp amplifier (Axon Instruments, Foster City, Calif.), and data were acquired and analyzed by PCLAMP software (Axon Instruments).
Inward Na^+ currents were evoked by voltage steps to +60 mV, 800 ms long from a holding potentials of −90 mV. Currents were measured at the maximum (peak) and normalized to control (before addition of the compound).

[2] = tested on: delayed rectifier K^+ channel; assay: Voltage clamp, delayed rectifier K+ currents (HP −20 mV) in unidentified DRG neurons; format: cell-based, rat; settings: for K+ current HP: −20 mV (delayed rectifier), relative value (before drug = 1): unidentified DRG neurons
Procedure: as §1, §2, §3
In voltage-clamp recordings, outward K^+ currents and inward Na^+ currents were measured. For the isolation of K^+ currents, the external solution was changed to one containing (in mmol/L): choline-Cl 150, KOH 5, CaCl2 0.03, HEPES 10, Mg(OH)2 3, and D-glucose 10, adjusted to pH 7.4 with HCl.
In first series of experiments using unidentified DRG neurons, outward K^+ currents were evoked by voltage steps to +60 mV, 800 ms long from a holding potentials of −90 mV, this was followed by a 1-second conditioning pre-pulse to −20 mV followed by a second pulse to +60 mV, identical to the first in the sequence. In the second series of experiments using Fast Blue-labeled bladder afferent neurons, slowly-inactivating A-type K^+ currents were isolated by subtraction of outward K^+ currents activated from a holding potential of −40 mV (on the condition of inactivation of the majority of slowly-inactivating A-type K^+ currents) from those activated from a holding potential of −120 mV (on the condition of full activation of slowly-inactivating A-type K^+ currents). A compound was added cumulatively, starting with a lower concentration. Currents were measured at the maximum (peak) and normalized to control (before addition of the compound).
The currents at a holding potential (HP) of −90 mV are results of the measurement of slowly-inactivating A-type K^+ currents, and the currents at an HP value of −20 mV are results of the measurement of delayed rectifier K^+ currents. […]

`C[C@](O)(C(=O)Nc1cccc2c1C(=O)c1sccc1CS2(=O)=O)C(F)(F)F` [Compound 1, (S)-(+)-N-(5,5-dioxido-10-oxo-4,10-dihydrothieno[3,2-c][1]benzothiepin-9-yl)-3,3,3-trifluoro-2-hydroxy-2-methylpropanamide] was tested. Which “Na^+ ion currents, normalized to control (before addition)” value (“Na^+ ion currents, normalized to control” below) ([1]; Compound 1 1.0 × 10^−6 mol/L) did it give?
The value was 0.99 ± 0.02.

What about the “Na^+ ion currents, normalized to control” value ([1]; Compound 1 5.0 × 10^−4 mol/L) of the same compound?
Its value is 1.00 ± 0.01.

What about the “Na^+ ion currents, normalized to control” value ([1]; Compound 1 5.0 × 10^−5 mol/L) of the same compound?
The value was 1.00 ± 0.01.

And the “Na^+ ion currents, normalized to control” value ([1]; Compound 1 5.0 × 10^−6 mol/L)?
The value was 1.00 ± 0.00.

And the “Na^+ ion currents, normalized to control” value ([1]; Compound 1 5.0 × 10^−7 mol/L)?
The value was 0.99 ± 0.01.

What about the “Na^+ ion currents, normalized to control” value ([1]; Compound 1 5.0 × 10^−8 mol/L) of the same compound?
Its value is 0.99 ± 0.01.

What about the “Influence upon Na^+ currents (in words)” value ([1]; DRG cells) of the same compound?
Its value is “does not exert influence upon Na^+ currents”.

And the “K+ current HP: −20 mV, relative value (before drug = 1)” value (shortened to “K+ current HP: −20 mV, relative value”) ([2]; Compound 1 1.0 × 10^−5 mol/L, in the presence of 5 μmol/L verapamil)?
The value was 1.00 ± 0.02.

What about the “K+ current HP: −20 mV, relative value” value ([2]; Compound 1 1.0 × 10^−5 mol/L, in the presence of 20 mmol/L tetraethylammonium) of the same compound?
The value was 1.01 ± 0.02.

What about the “K+ current HP: −20 mV (delayed rectifier), relative value (before drug = 1)” value ([2]; Compound 1 1.0 × 10^−5 mol/L) of the same compound?
Its value is 0.88 ± 0.07.

What about the “K+ current HP: −20 mV, relative value” value ([2]; Compound 1 1.0 × 10^−6 mol/L, in the presence of 5 μmol/L verapamil) of the same compound?
The value was 1.00 ± 0.01.

And the “K+ current HP: −20 mV, relative value” value ([2]; Compound 1 1.0 × 10^−6 mol/L, in the presence of 20 mmol/L tetraethylammonium)?
Its value is 1.00 ± 0.00.

And the “K+ current HP: −20 mV (delayed rectifier), relative value (before drug = 1)” value ([2]; Compound 1 1.0 × 10^−6 mol/L)?
Its value is 1.00 ± 0.02.

And the “K+ current HP: −20 mV, relative value” value ([2]; Compound 1 1.0 × 10^−7 mol/L, in the presence of 5 μmol/L verapamil)?
Its value is 1.00 ± 0.01.

And the “K+ current HP: −20 mV, relative value” value ([2]; Compound 1 1.0 × 10^−7 mol/L, in the presence of 20 mmol/L tetraethylammonium)?
Its value is 0.99 ± 0.02.

What about the “K+ current HP: −20 mV (delayed rectifier), relative value (before drug = 1)” value ([2]; Compound 1 1.0 × 10^−7 mol/L) of the same compound?
Its value is 1.02 ± 0.01.

What about the “K+ current HP: −20 mV (delayed rectifier), relative value (before drug = 1)” value ([2]; Compound 1 1.0 × 10^−8 mol/L) of the same compound?
The value was 0.98 ± 0.04.

What about the “K+ current HP: −20 mV (delayed rectifier), relative value (before drug = 1)” value ([2]; Compound 1 2.5 × 10^−8 mol/L) of the same compound?
The value was 1.01 ± 0.03.

And the “K+ current HP: −20 mV, relative value” value ([2]; Compound 1 5.0 × 10^−4 mol/L, in the presence of 5 μmol/L verapamil)?
Its value is 0.83 ± 0.06.

What about the “K+ current HP: −20 mV, relative value” value ([2]; Compound 1 5.0 × 10^−4 mol/L, in the presence of 20 mmol/L tetraethylammonium) of the same compound?
The value was 0.25 ± 0.04.

And the “K+ current HP: −20 mV, relative value” value ([2]; Compound 1 5.0 × 10^−4 mol/L, in the presence of 60 mmol/L tetraethylammonium)?
The value was 0.54 ± 0.02.

What about the “K+ current HP: −20 mV, relative value” value ([2]; Compound 1 5.0 × 10^−5 mol/L, in the presence of 5 μmol/L verapamil) of the same compound?
The value was 0.98 ± 0.01.

What about the “K+ current HP: −20 mV, relative value” value ([2]; Compound 1 5.0 × 10^−5 mol/L, in the presence of 20 mmol/L tetraethylammonium) of the same compound?
The value was 0.84 ± 0.06.

And the “K+ current HP: −20 mV, relative value” value ([2]; Compound 1 5.0 × 10^−5 mol/L, in the presence of 60 mmol/L tetraethylammonium)?
Its value is 0.95 ± 0.03.

And the “K+ current HP: −20 mV (delayed rectifier), relative value (before drug = 1)” value ([2]; Compound 1 5.0 × 10^−5 mol/L)?
The value was 0.81 ± 0.08.

What about the “K+ current HP: −20 mV, relative value” value ([2]; Compound 1 5.0 × 10^−6 mol/L, in the presence of 5 μmol/L verapamil) of the same compound?
Its value is 1.01 ± 0.01.

What about the “K+ current HP: −20 mV, relative value” value ([2]; Compound 1 5.0 × 10^−6 mol/L, in the presence of 20 mmol/L tetraethylammonium) of the same compound?
The value was 0.98 ± 0.01.

And the “K+ current HP: −20 mV, relative value” value ([2]; Compound 1 5.0 × 10^−6 mol/L, in the presence of 60 mmol/L tetraethylammonium)?
Its value is 0.97 ± 0.02.

What about the “K+ current HP: −20 mV, relative value” value ([2]; Compound 1 5.0 × 10^−7 mol/L, in the presence of 5 μmol/L verapamil) of the same compound?
The value was 1.00 ± 0.01.

What about the “K+ current HP: −20 mV, relative value” value ([2]; Compound 1 5.0 × 10^−7 mol/L, in the presence of 20 mmol/L tetraethylammonium) of the same compound?
Its value is 1.01 ± 0.01.

And the “K+ current HP: −20 mV, relative value” value ([2]; Compound 1 5.0 × 10^−7 mol/L, in the presence of 60 mmol/L tetraethylammonium)?
Its value is 0.97 ± 0.03.

What about the “K+ current HP: −20 mV (delayed rectifier), relative value (before drug = 1)” value ([2]; Compound 1 5.0 × 10^−7 mol/L) of the same compound?
Its value is 1.01 ± 0.02.

And the “K+ current HP: −20 mV, relative value” value ([2]; Compound 1 5.0 × 10^−8 mol/L, in the presence of 5 μmol/L verapamil)?
The value was 1.00 ± 0.00.

What about the “K+ current HP: −20 mV, relative value” value ([2]; Compound 1 5.0 × 10^−8 mol/L, in the presence of 20 mmol/L tetraethylammonium) of the same compound?
The value was 0.99 ± 0.01.

What about the “K+ current HP: −20 mV, relative value” value ([2]; Compound 1 5.0 × 10^−8 mol/L, in the presence of 60 mmol/L tetraethylammonium) of the same compound?
The value was 1.00 ± 0.01.

What about the “K+ current HP: −20 mV (delayed rectifier), relative value (before drug = 1)” value ([2]; Compound 1 5.0 × 10^−8 mol/L) of the same compound?
Its value is 1.00 ± 0.01.

What about the “K+ current HP: −20 mV, relative value” value ([2]; Compound 1 5.0 × 10^−9 mol/L, in the presence of 20 mmol/L tetraethylammonium) of the same compound?
Its value is 0.99 ± 0.00.

And the “K+ current HP: −20 mV (delayed rectifier), relative value (before drug = 1)” value ([2]; Compound 1 5.0 × 10^−9 mol/L)?
Its value is 0.98 ± 0.02.
